Measured values from patent publication US7935674B2, “Indole derivatives” (Mitsubishi Tanabe Pharma Corporation, priority 2005, dated 2011).
pIC50: −log10 of the molar value.

Target: T1, human SGLT2 (Homo sapiens, UniProt P31639)
T1 construct: expressed in transfected cells; host or cells: CHOK1 (Chinese hamster ovary) cells, kept under Geneticin selection
T1 sequence (P31639 1-672): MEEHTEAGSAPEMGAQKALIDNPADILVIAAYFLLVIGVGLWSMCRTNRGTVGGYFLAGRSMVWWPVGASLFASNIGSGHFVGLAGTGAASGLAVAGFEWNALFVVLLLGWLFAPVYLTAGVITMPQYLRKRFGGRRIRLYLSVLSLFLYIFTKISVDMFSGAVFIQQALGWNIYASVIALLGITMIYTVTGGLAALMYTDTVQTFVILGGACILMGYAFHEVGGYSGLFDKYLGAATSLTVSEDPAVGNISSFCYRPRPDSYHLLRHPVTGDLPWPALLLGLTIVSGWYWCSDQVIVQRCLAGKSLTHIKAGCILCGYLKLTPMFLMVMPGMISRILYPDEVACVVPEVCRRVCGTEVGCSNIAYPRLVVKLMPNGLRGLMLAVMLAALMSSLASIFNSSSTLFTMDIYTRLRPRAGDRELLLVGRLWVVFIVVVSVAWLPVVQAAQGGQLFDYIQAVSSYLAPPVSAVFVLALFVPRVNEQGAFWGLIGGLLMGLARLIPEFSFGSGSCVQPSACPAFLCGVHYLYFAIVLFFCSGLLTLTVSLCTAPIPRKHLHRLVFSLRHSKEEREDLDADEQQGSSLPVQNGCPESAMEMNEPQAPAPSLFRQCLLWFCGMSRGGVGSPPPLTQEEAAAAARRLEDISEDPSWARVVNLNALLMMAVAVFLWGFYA
Assay: Assay for SGLT2 inhibition (14C-AMG uptake in CHOK1 cells expressing human SGLT2)
Type: cell-based
Details: CHOK1 cells expressing human SGLT2; 14C-AMG uptake, 0.5 mM, 2 hours at 37° C.; read-out: IC50
Method: 1. Assay for SGLT2 Inhibition
Compounds described in the above examples were used for the SGLT2 inhibition assay.
CHOK1 cells expressing human SGLT2 were seeded in 24-well plates at a density of 400,000 cells/well in F-12 nutrient mixture (Ham's F-12) containing 10% fetal bovine serum, 400 μg/ml Geneticin, 50 units/ml sodium penicillin G (Gibco-BRL) and 50 μg/ml streptomycin sulfate. After 2 days of culture at 37° C. in a humidified atmosphere containing 5% CO2, cells were washed once with the assay buffer (137 mM NaCl, 5 mM KCl, 1 mM CaCl2, 1 mM MgCl2, 50 mM Hepes, and 20 mM Tris, pH 7.4) and incubated with 250 μl of the buffer containing test compounds for 10 min at 37° C. Test compounds were dissolved in DMSO. The final concentration of DMSO was 0.5%. The transport reaction was initiated by addition of 50 μl [^14C]-methyl-α-D-glucopyranoside (^14C-AMG) solution (final concentration, 0.5 mM). After incubation for 2 hours at 37° C., the uptake was stopped by aspiration of the incubation mixture, the cells were washed three times with ice-cold PBS. Then, cells were solubilized with 0.3 N NaOH and aliquots were taken for determination of radioactivity by a liquid scintillation counter. Nonspecific AMG uptake was defined as that which occurred in the presence of 100 μM of phlorizin, a specific inhibitor of sodium-dependent glucose cotransporter. Specific uptake was normalized for the protein concentrations measured by the method of Bradford. The 50% inhibitory concentration (IC50) values were calculated from dose-response curves by least square method.

pIC50 | Compound
8.77 | CSc1ccc(Cc2cn([C@@H]3O[C@H](CO)[C@@H](O)[C@H](O)[C@H]3O)c3cccc(Cl)c23)cc1 [Example 4, 4-Chloro-3-(4-(methylthio)phenylmethyl)-1-(β-D-gluco-pyranosyl)indole]
8.74 | COc1ccc(Cc2cn([C@@H]3O[C@H](CO)[C@@H](O)[C@H](O)[C@H]3O)c3cccc(Cl)c23)cc1 [Example 5, 4-Chloro-3-(4-methoxyphenylmethyl)-1-(β-D-glucopyranosyl)-indole]
7.72 | Cc1cccc2c1c(Cc1ccc(-c3ccc(F)cc3)s1)cn2[C@@H]1O[C@H](CO)[C@@H](O)[C@H](O)[C@H]1O [Example 48, 3-(5-(4-Fluorophenyl)thiophen-2-yl-methyl)-4-methyl-1-(β-D-glucopyranosyl)indole]
8.21 | Cc1cccc2c1c(Cc1ccc(-c3cccs3)s1)cn2[C@@H]1O[C@H](CO)[C@@H](O)[C@H](O)[C@H]1O [Example 51, 4-Methyl-3-(5-(2-thienyl)thiophen-2-yl-methyl)-1-(β-D-gluco-pyranosyl)indole]
8.62 | Cc1ccc(Cc2cn([C@@H]3O[C@H](CO)[C@@H](O)[C@H](O)[C@H]3O)c3cccc(Cl)c23)cc1 [Example 11, 4-Chloro-3-(4-methylphenylmethyl)-1-(β-D-glucopyranosyl)-indole]
8.43 | CCc1ccc(Cc2cn([C@@H]3O[C@H](CO)[C@@H](O)[C@H](O)[C@H]3O)c3cccc(Br)c23)cc1 [Example 22, 4-Bromo-3-(4-ethylphenylmethyl)-1-(β-D-glucopyranosyl)indole]
8.20 | Cc1ccc(Cc2cn([C@@H]3O[C@H](CO)[C@@H](O)[C@H](O)[C@H]3O)c3cccc(F)c23)cc1 [Example 24, 4-Fluoro-3-(4-methylphenylmethyl)-1-(β-D-glucopyranosyl)-indole]
8.74 | OC[C@H]1O[C@@H](n2cc(Cc3ccc4c(c3)CCO4)c3c(Cl)cccc32)[C@H](O)[C@@H](O)[C@@H]1O [Example 21, 4-Chloro-3-(2,3-dihydrobenzo[b]furan-5-yl-methyl)-1-(β-D-glucopyranosyl)indole]
8.60 | Cc1cccc2c1c(Cc1ccc(-c3cccc(C#N)c3)s1)cn2[C@@H]1O[C@H](CO)[C@@H](O)[C@H](O)[C@H]1O [Example 45, 3-(5-(3-Cyanophenyl)-thiophen-2-yl-methyl)-4-methyl-1-(β-D-glucopyranosyl)indole]
8.60 | OC[C@H]1O[C@@H](n2cc(Cc3ccc(OCCF)cc3)c3c(Cl)cccc32)[C@H](O)[C@@H](O)[C@@H]1O [Example 17, 4-Chloro-3-(4-(2-Fluoroethyloxy)phenylmethyl)-1-(β-D-glucopyranosyl)indole]
8.06 | Cc1cccc2c1c(Cc1ccc(-c3ccc(F)nc3)s1)cn2[C@@H]1O[C@H](CO)[C@@H](O)[C@H](O)[C@H]1O [Example 49, 3-(5-(6-Fluoro-3-pyridyl)thiophen-2-yl-methyl)-4-methyl-1-(β-D-glucopyranosyl)indole]
8.39 | OC[C@H]1O[C@@H](n2cc(Cc3ccc(OCCF)cc3)c3c(F)cccc32)[C@H](O)[C@@H](O)[C@@H]1O [Example 12, 4-Fluoro-3-(4-(2-fluoroethyloxy)phenylmethyl)-1-(β-D-gluco-pyranosyl)indole]
7.96 | Cc1cccc2c1c(Cc1ccc(-c3ccccc3)s1)cn2[C@@H]1O[C@H](CO)[C@@H](O)[C@H](O)[C@H]1O [Example 50, 4-Methyl-3-(5-phenylthiophen-2-yl-methyl)-1-(β-D-gluco-pyranosyl)indole]
8.48 | COc1ccc(Cc2cn([C@@H]3O[C@H](CO)[C@@H](O)[C@H](O)[C@H]3O)c3cccc(F)c23)cc1 [Example 9, 4-Fluoro-3-(4-methoxyphenylmethyl)-1-(β-D-glucopyranosyl)-indole]

Compound | pIC50
CCc1ccc(Cc2cn([C@@H]3O[C@H](CO)[C@@H](O)[C@H](O)[C@H]3O)c3cccc(C)c23)cc1 [Example 23, 3-(4-Ethylphenylmethyl)-4-methyl-1-(β-D-glucopyranosyl)-indole] | 8.96
